# Test results as given in patent publication US7563595B2 (University of South Florida, priority 2002, dated 2009).
# Key:
# [1] = target: α7-2-nAChRs (Rattus norvegicus, UniProt Q05941, INS117GCQLHFDQDLQNMLLREACAQAGEDLRVS); test: Two-electrode voltage-clamp of Xenopus oocytes injected with α7-2 cRNA
# [2] = target: α7-1-nAChRs (Rattus norvegicus, UniProt Q05941); test: Two-electrode voltage-clamp of Xenopus oocytes injected with α7-1 cRNA
# [3] = system: Type II α7-nAChRs; conditions: cited from earlier work
substance,measurement,setting,value
α-bungarotoxin [αBgt],block by αBgt,[1],> 90%
same,effect on transient and sustained components of the ACh-evoked current,[1],abolished
same,inhibition of peak ACh-evoked current,[1],93±3%
same,reversal of αBgt inhibition after washout,[1],recovered to near control levels
same,time of toxin washout within which inhibition is reversed,[1],≤ 5 min
same,reversal of αBgt block after washout,[2],did not appreciably reverse
same,block by αBgt,[3],> 90%
same,time of toxin washout within which inhibition is reversed,[3],≤ 5 min
